Consider 25 compounds from patent US20240279205A1, “NOVEL BENZIMIDAZOLE DERIVATIVE” (Carna Biosciences, Inc., priority 2020, published 2024).

Each structure is given as a SMILES string. Where a name gives a salt, the structure may show the parent alone.

In one experiment the target is T1, human STING (hSTING) (Homo sapiens, UniProt Q86WV6).
T1 construct: host or cells: HEK-Blue ISG cells (HEK293-derived SEAP reporter line)
Nature of the experiment: Inhibition test of intracellular human STING (hSTING) pathway using SEAP reporter cells (HEK-Blue ISG), stimulation with Compound 3. To be noted: Compound 3 10 nM stimulation, 21 hours. Also noted: hSTING inhibitory activity: scale not given here. The format is cell-based. Summed up: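 HEK-Blue ISG cells with IRF-inducible SEAP reporter, pretreated 1 h with compound (final 0.1 to 10 μM), then stimulated with Compound 3 (final 10 nM) for 21 h at 37° C. Supernatant SEAP measured colorimetrically; IC50 from log-concentration regression, normalized to stimulated (100%) and unstimulated (0%) controls.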

In experiment [1] the test system is STING activation (IFN-β production in THP-1 cells). As to the kind of experiment: Human IFN-β production inhibition test by cGAMP stimulation in THP-1 cells. The format is cell-based. Also noted: IFN-β bioinhibitory activity: scale not given here. The note with it: 2'3'-cGAMP transfection, 18 hours, IFN-β ELISA; for IC50: Homo sapiens, read-out: IFN-β bioinhibitory activity. As for the experimental part:
Human IFN-β production inhibition test by cGAMP stimulation
The inhibitory activity of test compounds against STING activation was evaluated by measuring the amount of IFN-β produced when human monocytic cell line THP-1 cells were stimulated with the endogenous ligand cGAMP.
After seeding THP-1 cells (ATCC) in a 96-well plate, PMA (Santa Cruz Biotechnology) adjusted to a concentration of 100 nM after addition was added, and incubated at 37° C. in a 5% CO2 incubator. It was cultured overnight (RPMI1640 medium containing 10% FBS, 50 U/mL penicillin/50 μg/mL streptomycin). A test compound solution adjusted to a final concentration of 0.001 to 1 μM was added to each well of this plate and cultured for 1 hour in a CO2 incubator (DMSO final concentration 0.1%). 0.12 μg/well of 2′3′-cGAMP (Invivogen, #tlrl-nacga23) was introduced into the cells by transfection using Lipofectamine2000 (Invitrogen) and cultured in a CO incubator for an additional 18 hours. After collecting the culture supernatant from each well, the amount of human IFN-β produced in the culture supernatant was measured by ELISA using R&D human IFN-β Duoset (R&D Systems).
Assuming that the human IFN-β production amount of the test compound-free and cGAMP-added group is 100%, and the human IFN-β production amount of the test compound-free and cGAMP-free group is 0%, the IC50 value was determined by regression analysis of the inhibitory rate determined from the amount of human IFN-β production at each compound concentration and the concentration of the test compound (logarithm).
(In general: ELISA stands for enzyme-linked immunosorbent assay.)

T1 sequence (Q86WV6 whole entry H232R): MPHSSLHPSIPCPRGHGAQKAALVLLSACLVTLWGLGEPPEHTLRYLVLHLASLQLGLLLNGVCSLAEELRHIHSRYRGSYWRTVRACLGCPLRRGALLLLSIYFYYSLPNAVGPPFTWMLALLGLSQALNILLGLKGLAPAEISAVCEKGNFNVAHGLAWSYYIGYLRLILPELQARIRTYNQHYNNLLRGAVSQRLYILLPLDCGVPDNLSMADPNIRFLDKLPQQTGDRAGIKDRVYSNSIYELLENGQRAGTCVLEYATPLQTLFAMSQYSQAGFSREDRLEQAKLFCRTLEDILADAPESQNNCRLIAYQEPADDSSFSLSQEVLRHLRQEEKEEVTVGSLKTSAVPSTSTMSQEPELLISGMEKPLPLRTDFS

Regarding `C[Si](C)(C)C#Cc1ccc2[nH]c(Nc3c[nH]c4ccc(Br)nc34)nc2c1` [Embodiment 59, N-(5-bromo-1H-pyrrolo[3,2-b]pyridin-3-yl)-5-[(trimethylsilyl)ethynyl]-1H-benzo[d]imidazol-2-amine], the hSTING inhibitory activity entry at human STING (hSTING) is listed as “* * *”. The IFN-β bioinhibitory activity entry in experiment [1] is reported as “* *”.
Take `Cn1c(Nc2c[nH]c3ccc(Cl)cc23)nc2cc(F)ccc21` [Embodiment 185, N-(5-Chloro-1H-indol-3-yl)-5-fluoro-1-methyl-1H-benzo[d]imidazol-2-amine formate]: the hSTING inhibitory activity entry at human STING (hSTING) is “* *”. The IFN-β bioinhibitory activity entry in experiment [1] is “* * *”.
For `Cn1c(Nc2c[nH]c3ccc(Cl)nc23)nc2cc(C(F)(F)F)ccc21` [Embodiment 47, N-(5-Chloro-1H-pyrrolo[3,2-b]pyridin-3-yl)-1-methyl-5-(trifluoromethyl)-1H-benzo[d] imidazol-2-amine], in that order: “* *” and “* *”.
For `CN(C)n1c(Nc2c[nH]c3ccc(Cl)cc23)nc2cc(C(F)(F)F)cc(F)c21` [Embodiment 237, N2-(5-Chloro-1H-indol-3-yl)-7-fluoro-N1,N1-dimethyl-5-(trifluoromethyl)-1H-benzo[d] imidazole-1,2-diamine], in that order: “* * *” and “* *”.
Consider `Cc1ccc2[nH]c(Nc3c[nH]c4ccc(Cl)nc34)nc2c1` [Embodiment 123, N-(5-chloro-1H-pyrrolo[3,2-b]pyridin-3-yl)-5-methyl-1H-benzo[d] imidazol-2-amine], for which the hSTING inhibitory activity entry at human STING (hSTING) was “* * *”. Besides, the IC50 in experiment [1] was 100 to 1000 nM.
In the case of `C=Cc1ccc2[nH]cc(Nc3nc4cc(Oc5ccccc5)ccc4[nH]3)c2n1` [Embodiment 101, 5-phenoxy-N-(5-vinyl-1H-pyrrolo [3,2-b]pyridin-3-yl)-1H-benzo [d]imidazol-2-amine], on human STING (hSTING), the hSTING inhibitory activity entry is recorded as “* * *”. Besides, the IFN-β bioinhibitory activity entry in experiment [1] is recorded as “* *”.
As to `Clc1ccc2[nH]cc(Nc3nc4c(Cl)c(Cl)ccc4[nH]3)c2n1` [Embodiment 94, 4,5-dichloro-N-(5-chloro-1H-pyrrolo[3,2-b]pyridin-3-yl)-1H-benzo[d]imidazol-2-amine], the hSTING inhibitory activity entry on human STING (hSTING) is listed as “* * *”. Besides, the IC50 in experiment [1] was 100 to 1000 nM.
Regarding `Cn1c(Nc2c[nH]c3ccc(Cl)cc23)nc2cc(C(F)(F)F)c(F)cc21` [Embodiment 254, N-(5-Chloro-1H-indol-3-yl)-6-fluoro-1-methyl-5-(trifluoromethyl)-1H-benzo[d]imidazol-2-amine], the hSTING inhibitory activity result at human STING (hSTING) was “* * *”. Also, in experiment [1], the IFN-β bioinhibitory activity entry is on record as “* *”.
For the compound `OCCn1c(Nc2c[nH]c3ccc(Cl)cc23)nc2cc(OC(F)(F)F)ccc21` [Embodiment 245, 2-{2-[(5-Chloro-1H-indol-3-yl)amino]-5-(trifluoromethoxy)-1H-benzo[d]imidazol-1-yl}ethan-1-oar], the hSTING inhibitory activity entry at human STING (hSTING) is listed as “* *”. The IC50 in experiment [1] was 100 to 1000 nM.
The corresponding values for `Fc1cc(C(F)(F)F)cc2nc(Nc3c[nH]c4ccc(Cl)cc34)[nH]c12` [Embodiment 267, N-(5-Chloro-1H-indol-3-yl)-7-fluoro-5-(trifluoromethyl)-1H-benzo [d]imidazol-2-amine] are “* *” and 100 to 1000 nM.
As for `Cn1c(Nc2c[nH]c3ccc(Cl)cc23)nc2cc(C(F)(F)F)cc(Cl)c21` [Embodiment 249, 7-Chloro-N-(5-chloro-1H-indol-3-yl)-1-methyl-5-(trifluoromethyl)-1 H-benzo[d]imidazol-2-amine], on human STING (hSTING), the hSTING inhibitory activity entry is recorded as “* * *”. The IFN-β bioinhibitory activity entry in experiment [1] is “* *”.
Turning to `Clc1cc2nc(Nc3c[nH]c4ccc(Br)nc34)[nH]c2cc1Cl` [Embodiment 88, N-(5-bromo-1H-pyrrolo[3,2-b]pyridin-3-yl)-5,6-dichloro-1H-benzo[d]imidazol-2-amine], the hSTING inhibitory activity result at human STING (hSTING) is on record as “* * *”. In addition, the IC50 in experiment [1] is 100 to 1000 nM.
On to `C#CCn1c(Nc2c[nH]c3ccc(Cl)cc23)nc2cc(OC(F)(F)F)ccc21` [Embodiment 253, N-(5-Chloro-1H-indol-3-yl)-1-(prop-2-yn-1-yl)-5-(trifluoromethoxy)-1H-benzo[d]imidazole-2-amine], for which the hSTING inhibitory activity entry on human STING (hSTING) was “* * *”. The IFN-β bioinhibitory activity entry in experiment [1] is given as “* *”.
Regarding `FC(F)(F)c1ccc2c(c1)nc(Nc1c[nH]c3ccc(Cl)cc13)n2C1COC1` [Embodiment 226, N-(5-Chloro-1H-indol-3-yl)-1-(oxetan-3-yl)-5-(trifluoromethyl)-1H-benzo[d]imidazol-2-amine], the hSTING inhibitory activity result on human STING (hSTING) is reported as “* *”. For the same compound, the IFN-β bioinhibitory activity result in experiment [1] is “* *”.
In the case of `Cn1c(Nc2c[nH]c3ccc(Cl)nc23)nc2c(N3CCCCC3)cccc21` [Embodiment 157, N-(5-chloro-1H-pyrrolo[3,2-b]pyridin-3-yl)-1-methyl-4-(piperidin-1-yl)-1H-benzo[d]imidazole-2-amine formate], the hSTING inhibitory activity result on human STING (hSTING) is listed as “* *”. For the same compound, in experiment [1], the IC50 lay within 100 to 1000 nM.
Take `C=CCn1c(Nc2c[nH]c3ccc(Cl)cc23)nc2cc(C(F)(F)F)ccc21` [Embodiment 213, 1-allyl-N-(5-chloro-1H-indol-3-yl)-5-(trifluoromethyl)-1H-benzo[d]imidazol-2-amine]: the hSTING inhibitory activity result at human STING (hSTING) is “* * *”. The IFN-β bioinhibitory activity entry in experiment [1] is “* *”.
For `CC(C)=Cc1ccc2[nH]c(Nc3c[nH]c4ccc(Cl)nc34)nc2c1` [Embodiment 128, N-(5-chloro-1H-pyrrolo[3,2-b]pyridin-3-yl)-5-(2-methylprop-1-en-1-yl)-1H-benzo[d]imidazole-2-amine], in that order: “* *” and “* * *”.
The corresponding values for `OCCn1c(Nc2c[nH]c3ccc(Cl)cc23)nc2cc(C(F)(F)F)ccc21` [Embodiment 223, 2-{2-[(5-chloro-1H-indol-3-yl)amino]-5-(trifluoromethyl)-1H-benzo[d]imidazol-1-yl}ethanol] are “* * *” and “* *”.
As for `FC(F)(F)c1ccc2c(c1)nc(Nc1c[nH]c3ccc(Br)cc13)n2C1CC1` [Embodiment 224, N-(5-bromo-1H-indol-3-yl)-1-cyclopropyl-5-(trifluoromethyl)-1H-benzo[d]imidazol-2-amine], at human STING (hSTING), the hSTING inhibitory activity result is “* * *”. The IFN-β bioinhibitory activity result in experiment [1] is “* *”.
As for `Cn1c(Nc2c[nH]c3ccc(Cl)nc23)nc2cc(Oc3ccccc3)ccc21` [Embodiment 45, N-(5-Chloro-1H-pyrrolo[3,2-b]pyridin-3-yl)-1-methyl-5-phenoxy-1H-benzo[d]imidazol-2-amine], the hSTING inhibitory activity entry at human STING (hSTING) was “* *”. The IC50 in experiment [1] is 100 to 1000 nM.
Consider `Brc1ccc2[nH]cc(Nc3nc4cc(-c5ccccc5)ccc4[nH]3)c2n1` [Embodiment 60, N-(5-bromo-1H-pyrrolo[3,2-b]pyridin-3-yl)-5-phenyl-1H-benzo [d]imidazol-2-amine], for which, at human STING (hSTING), the hSTING inhibitory activity result was “* * *”. Moreover, the IC50 is 1000 to 10000 nM at human STING (hSTING) (read-out: hSTING inhibitory activity) and 100 to 1000 nM in experiment [1].
Regarding `COCCn1c(Nc2c[nH]c3ccc(Br)nc23)nc2ccc(Oc3ccccc3)cc21` [Embodiment 93, N-(5-bromo-1H-pyrrolo[3,2-b]pyridin-3-yl)-1-(2-methoxyethyl)-6-phenoxy-1H-benzo[d]imidazol-2-amine], the hSTING inhibitory activity entry on human STING (hSTING) is “* * *”. Further, the IC50 in experiment [1] lay in the range of 100 to 1000 nM.
For `CCc1ccc2[nH]cc(Nc3nc4ccc(Oc5ccc(F)cc5)cc4n3C)c2n1` [Embodiment 192, N-(5-ethyl-1H-pyrrolo[3,2-b]pyridin-3-yl)-6-(4-fluorophenoxy)-1-methyl-1H-benzo[d]imidazole-2-amine formate], the hSTING inhibitory activity entry at human STING (hSTING) is given as “* *”. Moreover, the IC50 in experiment [1] was in the range of 100 to 1000 nM.
For `FC(F)(F)c1ccc2c(c1)nc(Nc1c[nH]c3ccc(Cl)cc13)n2C1CC1` [Embodiment 57, N-(5-chloro-1H-indol-3-yl)-1-cyclopropyl-5-(trifluoromethyl)-1H-benzo[d]imidazol-2-amine], the hSTING inhibitory activity result on human STING (hSTING) is “* * *”. Besides, in experiment [1], the IFN-β bioinhibitory activity entry is reported as “* *”.
Regarding `COc1ccc2[nH]c(Nc3c[nH]c4ccc(Br)cc34)nc2c1` [Example 6, N-(5-bromo-1H-indol-3-yl)-5-methoxy-1H-benzo[d]imidazol-2-amine], the hSTING inhibitory activity entry at human STING (hSTING) is reported as “* *”. Moreover, the IC50 in experiment [1] was 100 to 1000 nM.
